According to patent US7645903B2, “Use of urea variants as affinity ligands” (GE Healthcare Bio-Sciences AB, priority 2002, dated 2010):

Tests used:
human Fab of κ-type = assay: STD-NMR binding test (saturation transfer difference NMR screening); design: key to NMR signal, conc 1 / NMR signal, conc 2 / NMR signal, conc 3 / NMR signal, Conc 1 (directed library) / NMR signal, Conc 2 (directed library): 0 no; 1 weak; 2 strong signal; conditions: for NMR signal, conc 2: 100 nM protein; for NMR signal, conc 2 / NMR signal, conc 1 / NMR signal, conc 3: 0.5 mM ligand; for NMR signal, conc 1: 500 nM protein; for NMR signal, conc 3: 20 nM protein; for NMR signal at the first dilution of antibody concentration: conc 2, 100 nM; for binder designation from NMR screening: from signals at 500, 100 and 20 nM antibody
Procedure: (§1) All NMR experiments were performed at 298 K on a Bruker Avance 500 MHz spectrometer. The 1D saturation transfer difference method (STD-NMR) was used as screening assay (Mayer M. and Meyer B. 1999. Characterisation of Ligand Binding by Saturation Transfer Difference NMR Spectroscopy. Angew. Chem., Int. Ed. 38: 1784-1788). […] The two spectra are recorded in the same experiment in an interleaved fashion. […] It has been shown that the method is capable of detecting ligands with dissociation constants between 10^−3 and 10^−8 M (Mayer M. and Meyer B. 1999. Characterisation of Ligand Binding by Saturation Transfer Difference NMR Spectroscopy. Angew. Chem, Int. Ed. 38: 1784-1788). The strength of the STD-NMR signal depends upon several factors including protein size, offset and duration of the on-resonance irradiation, the dissociation rate constant and the excess of ligand. The STD-NMR method is advantageous in that the detection limits can be tuned for binding by varying the protein concentration while keeping the ligand concentration constant. Under such conditions, at higher protein concentrations the weak to medium binders are detected, whereas at lower protein concentrations only medium binders are detected. For instance, it has been shown before for another enzyme system that both μM and mM binders were detected at a protein concentration of 35 μM whereas only μM binders were detected at protein concentrations of 1 μM and 100 nM (Peng J. W., Lepre C. A., Fejzo J., Abdul-Manan N. and Moore J. M. 2001, Nuclear Magnetic Resonance-Based Approaches for Lead Generation in Drug Discovery, Methods in Enzymology. 338: 202-230). It should be noted that the signal intensity at one specific protein concentration should not be taken as a direct measure of the binding strength. […] On the other hand the signal of the μM binder became even stronger than before (Peng J. W., Lepre C. A., Fejzo J., Abdul-Manan N. and Moore J. M. 2001, Nuclear Magnetic Resonance-Based Approaches for Lead Generation in Drug Discovery, Methods in Enzymology. 338: 202-230).
(§2) Here, three different antibody concentrations were used, namely, 0.5 μM, 100 nM and 20 nM. The antibody used was a human Fab of κ-type. In all cases ligands were tested one-by-one. On-resonance irradiation was set at 0 ppm and off-resonance irradiation was set at 40 ppm. Irradiation time in each scan was 2 s and 16K data points were collected with 1024 scans in total. Compounds for testing were dissolved in DMSOd6 to a concentration of 50 mM and 5 μL of the concentrated ligand solution was added to 495 μL buffer solution. The samples thus consisted of 0.5 mM ligand, 20 mM phosphate buffer, 100 mM NaCl and […] in D2O at pD 7.5, uncorrected reading on pH-meter. Compounds were initially tested for binding with 0.5 μM antibody. Interesting ligands were further tested with protein concentrations of 100 or 20 nM. A one-dimensional ^1H-spectrum was acquired first as reference spectrum and subsequently a saturation transfer difference (STD) spectrum was acquired. Each analysis took 60 minutes on the spectrometer.

[1] = STD-NMR control in the absence of target antibody; design: key to NMR signal, ctrl: 0 no; 1 weak; 2 strong signal; conditions: for NMR signal, ctrl: absence of target antibody
Procedure: as §1, §2
These compounds were designated as weak binders. […] Of these, three compounds AB—0000860, AB—0000910 and AB—0001250 showing a clear signal (2 in table 1) were further analysed at a second dilution of antibody concentration (conc 3 in table 1).

Compound: c1ccc(-c2nnc3ccccc3n2)cc1 [AB_0000600, 3-phenyl-1,2,4-benzotriazine]
- NMR signal, conc 2 (human Fab of κ-type): 1
- NMR signal, conc 1 (human Fab of κ-type): 1
- NMR signal, ctrl [1]: 0

Compound: OCC(Oc1ccccc1)c1ccccc1 (stereo not shown) [AB_0000810, 2-phenoxy-2-phenyl-1-ethanol]
- NMR signal, conc 2 (human Fab of κ-type): 1
- NMR signal, conc 1 (human Fab of κ-type): 2
- NMR signal, ctrl [1]: 0

Compound: O=C1CN(c2ccccc2)C(=O)N1c1ccccc1 [AB_0000860, 1,3-diphenylimidazolidine-2,4-dione]
- NMR signal, conc 3 (human Fab of κ-type): 1
- NMR signal, conc 2 (human Fab of κ-type): 2
- NMR signal, conc 1 (human Fab of κ-type): 2
- NMR signal at the first dilution of antibody concentration (human Fab of κ-type): clear signal
- binder designation from NMR screening (human Fab of κ-type): strong binders
- NMR signal, ctrl [1]: 0

Compound: COc1ccc(CC(C)=O)cc1Br [AB_0000910, 3-bromo-4-methoxyphenylacetone]
- NMR signal, conc 3 (human Fab of κ-type): 0
- NMR signal, conc 2 (human Fab of κ-type): 2
- NMR signal, conc 1 (human Fab of κ-type): 2
- NMR signal at the first dilution of antibody concentration (human Fab of κ-type): clear signal
- NMR signal at a second dilution of antibody concentration (human Fab of κ-type; conc 3, 20 nM): did not show any signal
- NMR signal, ctrl [1]: 0

Compound: N#CCc1ccc(C(=O)c2ccccc2F)s1 [AB_0001010, 2-[5-(2-fluorobenzoyl)-2-thienyl]acetonitrile]
- NMR signal, conc 3 (human Fab of κ-type): 2
- NMR signal, conc 2 (human Fab of κ-type): 2
- NMR signal, conc 1 (human Fab of κ-type): 2
- binder designation from NMR screening (human Fab of κ-type): false positive
- NMR signal, ctrl [1]: 1
- NMR signal in the absence of target antibody ([1]; no antibody): positive NMR signal

Compound: CC(C)=CC1=C(O)C(=O)c2ccccc2C1=O [AB_0001040, 2-hydroxy-3-(2-methyl-1-propenyl)-1,4-naphthoquinone]
- NMR signal, conc 2 (human Fab of κ-type): 1
- NMR signal, conc 1 (human Fab of κ-type): 1
- NMR signal, ctrl [1]: 0

Compound: COC(=O)C1OC1c1cc(Cl)ccc1OC (stereo not shown) [AB_0001240, methyl 3-(5-chloro-2-methoxyphenyl)-2,3-epoxypropionate]
- NMR signal, conc 2 (human Fab of κ-type): 1
- NMR signal, conc 1 (human Fab of κ-type): 1
- NMR signal, ctrl [1]: 0

Compound: CN(C)C(=O)N(C)c1ccc(Cl)c(Cl)c1 [AB_0001250, 1-(3,4-dichlorophenyl)-1,3,3-trimethylurea]
- NMR signal, conc 3 (human Fab of κ-type): 1
- NMR signal, conc 2 (human Fab of κ-type): 2
- NMR signal, conc 1 (human Fab of κ-type): 2
- NMR signal at the first dilution of antibody concentration (human Fab of κ-type): clear signal
- binder designation from NMR screening (human Fab of κ-type): strong binders
- NMR signal, ctrl [1]: 0

Compound: COC(=O)CCCN(C)C(=O)N(C)c1ccc(F)c(F)c1 [AB_0001258, 4-[3-(3,4-Difluoro-phenyl)-1,3-dimethyl-ureido]-butyric acid methyl ester]
- NMR signal, Conc 2 (directed library) (human Fab of κ-type; 100 nM antibody): 1
- NMR signal, Conc 1 (directed library) (human Fab of κ-type; 500 nM antibody): 1

Compound: S=C(Oc1ccccn1)c1csc(C2COc3ccccc3O2)n1 (stereo not shown) [AB_0001260, 2-pyridyl 2-(2,3-dihydro-1,4-benzodioxin-2-yl)-1,3-thiazole-4-carbothioate]
- NMR signal, conc 1 (human Fab of κ-type): 0

Compound: OC(CNCc1ccc(Cl)cc1)CSc1ccccc1 (stereo not shown) [AB_0001270, 1-[(4-chlorobenzyl)amino]-3-(phenylthio)propan-2-ol]
- NMR signal, conc 2 (human Fab of κ-type): 0
- NMR signal, conc 1 (human Fab of κ-type): 1

Compound: Clc1ccc(OCc2noc(CSc3ccccn3)n2)cc1 [AB_0001290, 3-[(4-chlorophenoxy)methyl]-5-[(2-pyridylthio)methyl]-1,2,4-oxadiazole]
- NMR signal, conc 2 (human Fab of κ-type): 1
- NMR signal, conc 1 (human Fab of κ-type): 2
- NMR signal, ctrl [1]: 0

Compound: O=C(c1cccs1)c1cnc2ccccn2c1=O [AB_0001300, 3-(2-thienylcarbonyl)-4h-pyrido[1,2-a]pyrimidin-4-one]
- NMR signal, conc 2 (human Fab of κ-type): 0
- NMR signal, conc 1 (human Fab of κ-type): 1
